This assay addresses T1, mouse RyR2 NTR (Mus musculus, UniProt E9Q401, K30C/K441C, form not given).
T1 sequence (E9Q401 1-547 K30C/K441C): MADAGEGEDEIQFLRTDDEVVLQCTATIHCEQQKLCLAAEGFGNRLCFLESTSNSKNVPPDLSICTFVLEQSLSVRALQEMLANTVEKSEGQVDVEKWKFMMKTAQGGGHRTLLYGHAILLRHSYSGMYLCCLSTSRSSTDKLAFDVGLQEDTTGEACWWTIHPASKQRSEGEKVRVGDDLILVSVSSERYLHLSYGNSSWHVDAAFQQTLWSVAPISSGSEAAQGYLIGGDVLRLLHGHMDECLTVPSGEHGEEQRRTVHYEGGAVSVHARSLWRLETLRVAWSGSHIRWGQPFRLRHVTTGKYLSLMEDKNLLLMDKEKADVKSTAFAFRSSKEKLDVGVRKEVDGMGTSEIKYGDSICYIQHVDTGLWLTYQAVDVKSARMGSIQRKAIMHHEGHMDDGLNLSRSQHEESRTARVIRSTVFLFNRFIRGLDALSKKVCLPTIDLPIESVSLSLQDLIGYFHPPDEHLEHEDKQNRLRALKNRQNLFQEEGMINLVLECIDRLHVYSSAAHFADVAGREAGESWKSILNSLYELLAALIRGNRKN
The assay can be described thus: FLT-FRET dose-response with AC-NTR biosensor. In kind it is binding. Conditions: AC-NTR biosensor. From the text: The NTR of mouse RyR2 (residues 1–547) was cloned and expressed as previously described ([27]). The DNA construct contains a 6×His tag, a maltose-binding protein (MBP) tag, and a tobacco etch virus (TEV) protease cleavage site. The seven native solvent-exposed cysteine residues were substituted with alanine residues, and two constructs were engineered with Cys substitutions at surface residues R383 and K441 (in the B and C domains, respectively; termed BC) and at K30 and K441 (in the A and C domains, respectively; termed AC) for labeling with spectroscopic probes such as appropriate donor–acceptor fluorophores for FRET (for the purpose of this report, these are considered the WT forms of AC and BC). A variant of the BC construct corresponding to the disease-associated mutant (R420Q) was also prepared. For this site-directed mutagenesis work, we used the QuikChange (Stratagene) and Phusion High-Fidelity PCR (Thermo Fisher Scientific) kits. The WT-NTR, R420Q-NTR, AC- and BC-NTR, AC- and BC-R420Q-NTR protein constructs were expressed in Escherichia coli Rosetta (DE3) pLacI cells at 18 °C and purified with a protocol adapted from previously published work ([26]). An amylose column was first applied after the cells were lysed by ultrasonication. The protein in the elution was then cleaved using TEV protease. The cleaved crude protein went through the second amylose column to separate from the MBP and then followed by a Superdex S-200 size exclusion column in a buffer consisting of 250 mM KCl, 10 mM HEPES, and 14 mM β-mercaptoethanol (pH 7.4). The NTR protein (3 μM) was then incubated in 10 mM HEPES, 250 mM KCl (pH 7.4, 2 h, 21 °C) with the fluorescent probes Alexa Fluor 488 maleimide (AF488, donor; 40 μM) and Alexa Fluor 568 maleimide (AF568, acceptor; 60 μM). The maleimide of the dye reacts with the thiols the Cys residues engineered into NTR, forming a covalently labeled protein. The Alexa dyes were added last to the reaction mixture, from 10 mM DMSO stock solutions. This reaction is not selective to one site (K30C or K441C), and we anticipate that there is a mixed population with K30C or K441C labeled with either AF488 (donor) or AF568 (acceptor). We focused on maximizing the fraction containing donor–acceptor pairs, thus maximizing FRET efficiency and the precision for detecting a change in structure as an indication that a compound interacts with the NTR biosensor. The labeling efficiency was determined by comparing the molar concentration of the bound dye, determined from UV-Vis absorbance, to the protein concentration, determined from gel densitometry. Essentially complete labeling was confirmed from electrospray ionization mass spectrometry. CD spectra of the WT-NTR and mutant R420Q-NTR constructs before and after labeling were recorded using a JASCO J-815 CD spectrometer (JASCO), confirming similar folding (Fig. S1).
The 1536-well assay plates were prepared as described in our previous reports ([21]). The LOPAC (Sigma-Aldrich) collection received in 96-well plates was reformatted into 384-well polypropylene intermediate plates (Greiner Bio-One) using a multichannel liquid handler, BioMek FX (Beckman Coulter), then transferred to 384-well Echo Qualified source plates (Labcyte Inc). Assay plates were prepared as previously described ([20]). On screening days, these plates were thawed out and were loaded with labeled NTR (5 μl, 20 nM final concentration) using a Multidrop Combi automated sample dispenser.
HTS measurements were conducted in a prototype top-read FLT plate reader (FLT-PR, Fluorescence Innovations, Inc), which reads each 1536-well plate in ∼3 min ([63], [64]). AF488 donor fluorescence was excited with a 473 nm microchip laser from Concepts Research Corporation, and the emission signal was split into two channels by a dichroic mirror and acquired with 517 ± 10 nm (channel 1) and 535 ± 7 nm band-pass filters (channel 2) (Semrock). […]

With `CC(=O)O[C@H]1C[C@@]2(C)[C@@H](C[C@@H](O)[C@H]3[C@@]4(C)CC[C@@H](O)[C@@H](C)[C@@H]4CC[C@@]32C)/C1=C(\CCC=C(C)C)C(=O)O` [FA, (2Z)-2-[(3R,4S,5S,8S,9S,10S,11R,13R,14S,16S)-16-acetyloxy-3,11-dihydroxy-4,8,10,14-tetramethyl-2,3,4,5,6,7,9,11,12,13,15,16-dodecahydro-1H-cyclopenta[a]phenanthren-17-ylidene]-6-methylhept-5-enoic acid], the ΔFLT result (0 to 100 μM, CPNQ/corbadrine decrease FLT, FA/tacrolimus increase FLT) is listed as “≈ 0.1 ns”. Moreover, under “read-out: EC50, FRET dose-response, Hill fit, Table S4”, the EC50 turned out to be 3.8 µM.

Source of the values: publication PMC8689225, “Cardiac ryanodine receptor N-terminal region biosensors identify novel inhibitors via FRET-based high-throughput screening” (The Journal of Biological Chemistry, 2021).
